Measured values taken from patent US20020022266A1, “Localized delivery to a target surface” (priority 2000, published 2002).

What was measured:
Bovine carotid arteries = test system: Bovine carotid arteries
Excerpt: (§1) Bovine carotid and rabbit femoral arteries were harvested and placed into a container with DMEM. The arteries were then transferred to a petri dish with DPBS, and excess fat was removed from the vessel exterior with the aid of a scalpel and forceps. The vessel was then filleted with a pair of surgical scissors to expose the luminal surface. The lumen of the bovine vessel was scrape damaged with a spatula to simulate the damage that would occur during a vascular procedure in which plaque is scrapped off. The vessel was utilized without further preparation. The vessels were loaded into a tubular perfusion chamber. The wash medium used was DMEM with a 4.5 g/dl of bovine serum albumin [BSA] (Sigma). A syringe pump (Harvard Apparatus) was used to provide flow and mimic the arterial shear conditions that would be experienced in vivo. Initially, the vessel was perfused for five minutes with the wash medium. At this point, 1 mL of a 10 mM NHS-PEG-Biotin solution was injected into the chamber and incubated with the vessel for modification for one minute. Again, the wash medium was perfused for five minutes. Next, a 10 mL solution of NeutrAvidin-coated microspheres (Molecular Probes) at a concentration of 7.28×10^6 particles/mL was perfused over the modified surface for 2 minutes. The vessel was washed for five minutes one additional time and then removed from the chamber. Finally, the vessel was analyzed by counting the number of microspheres bound per mm^2 of tissue using epi-fluorescence microscopy. This same protocol was repeated for the control, with the vessel being incubated with DPBS alone and not the NHS-PEG-Biotin as described previously.

rabbit femoral arteries = conditions: 10 mM, one minute modification, two-minute perfusion, versus control, FIG. 3
Excerpt: as §1

In the case of NHS-PEG-Biotin, the “number of microspheres bound per mm^2 of tissue” value (Bovine carotid arteries; bovine arteries, 10 mM, one minute modification, two-minute perfusion, versus control, FIG. 2) is reported as “far greater than the control vessels”, the “binding of the microspheres to the modified versus unmodified surfaces (fluorescent micrographs)” value (Bovine carotid arteries; carotid artery segments, 10 mM NHS-PEG-Biotin, one minute, FIGS. 1A and 1B) is reported as “microspheres have attached” and the “number of microspheres bound per mm^2 of tissue” value (rabbit femoral arteries) is reported as “far greater than the control vessels”.
